{
  "source": "patent US10577332B2",
  "about": "“Tetrazole derivatives” (Hoffmann-La Roche Inc., priority 2015, dated 2020)",
  "key": {"human EAAT3": {"molecular_target": "T1, human EAAT3 (Homo sapiens, UniProt P43005)", "T1 construct": "expressed in transfected cells", "T1 sequence (P43005 1-524)": "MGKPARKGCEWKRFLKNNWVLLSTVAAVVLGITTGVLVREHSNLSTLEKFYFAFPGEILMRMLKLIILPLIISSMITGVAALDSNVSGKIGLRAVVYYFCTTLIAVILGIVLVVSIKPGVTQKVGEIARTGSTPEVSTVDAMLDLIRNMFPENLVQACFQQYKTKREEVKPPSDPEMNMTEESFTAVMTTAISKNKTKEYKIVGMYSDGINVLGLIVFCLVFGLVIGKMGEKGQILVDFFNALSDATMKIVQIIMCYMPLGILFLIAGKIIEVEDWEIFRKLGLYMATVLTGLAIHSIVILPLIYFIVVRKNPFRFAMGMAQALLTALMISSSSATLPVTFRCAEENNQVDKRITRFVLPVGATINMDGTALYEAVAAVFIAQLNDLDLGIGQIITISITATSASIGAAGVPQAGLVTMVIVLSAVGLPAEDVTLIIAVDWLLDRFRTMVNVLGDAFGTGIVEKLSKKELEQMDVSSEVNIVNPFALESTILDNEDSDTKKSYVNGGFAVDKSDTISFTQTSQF", "experiment": "FLIPR Membrane Potential (FMP) assay", "format": "cell-based", "details": "HEK-293 cells stably expressing human EAAT3; antagonist applied 15 min before L-glutamate at EC80; Kb by Cheng-Prusoff from IC50", "experimental": "The FLIPR Membrane Potential (FMP) Assay\nHEK-293 cells stably expressing human EAAT3 were seeded at 55 000 cells/well in growth medium (DMEM glutamate free (Invitrogen 11960-044), 1% Pen Strep (10 ml/l GIBCO BRL No 15140-023), 10% FCS non dialysed heat inactivated, 5 mg/l puromycin) in poly-D-lysine treated 96-well black microtiter plates with clear-bottom. After 24 h, the growth medium was removed and 100 μl/well of Krebs buffer (140 mM NaCl, 4.7 mM KCl, 2.5 mM CaCl2, 1.2 mM MgCl2, 11 mM HEPES, 10 mM D-glucose, pH=7.4) added. The cells were then loaded by adding 100 μl/well FMP assay dye (FLIPR Membrane Potential assay reagent, Molecular Devices). The 96-well plates were then incubated at 37° C. for 1 h. The depolarization of the cells will cause more dye to enter in the cells, where it will bind to intracellular proteins and lipids and cause an increase in the fluorescence signal. Antagonist potency at human EAAT3 was determined by using L-glutamate as agonist at a concentration which gives 80% of the maximum response. The antagonists were applied 15 min before the application of the agonist L-glutamate. The assays were performed at room temperature and measurements done by using a Fluorometric Imaging Plate Reader (FLIPR, Molecular Devices) and filter #2. Responses were measured as peak increase in fluorescence minus basal (i.e. fluorescence without addition of L-glutamate). Kb was determined using the Cheng-Prusoff equation Kb=IC50/[1+(A/EC50)], where IC50 is the concentration of the antagonist producing 50% inhibition, A is the concentration of the agonist against which the IC50 is being determined (at EC80) and EC50 is the concentration of the agonist producing 50% […]."}},
  "data": [
    {"compound": "Cc1ccc(-c2cc(C(=O)NC(C)(C)C3CC3)cc(-n3nnnc3C(C)(C)C)c2)cc1F", "note": "[Example 115, 3-(5-tert-Butyltetrazol-1-yl)-N-(2-cyclopropylpropan-2-yl)-5-(3-fluoro-4-methylphenyl)-benzamide]", "values": [
      {"measurement": "melting point", "result": 92, "unit": "°C"},
      {"measurement": "Kb", "setting": "human EAAT3", "result": 520, "unit": "nM"}
    ]},
    {"compound": "Cc1nnnn1-c1cc(C(=O)NC(C)(C)C)cc(-c2ccc(Cl)cc2)c1", "note": "[Example 67, N-tert-Butyl-3-(4-chlorophenyl)-5-(5-methyltetrazol-1-yl)-benzamide]", "values": [
      {"measurement": "melting point", "result": 98, "unit": "°C"},
      {"measurement": "Kb", "setting": "human EAAT3", "result": 240, "unit": "nM"}
    ]},
    {"compound": "CC(C)(CO)NC(=O)c1cc(-c2ccc(Cl)cc2)cc(-n2cnnn2)c1", "note": "[Example 15, 3-(4-Chlorophenyl)-N-(1-hydroxy-2-methylpropan-2-yl)-5-(tetrazol-1-yl)-benzamide]", "values": [
      {"measurement": "melting point", "result": 137, "unit": "°C"},
      {"measurement": "Kb", "setting": "human EAAT3", "result": 800, "unit": "nM"}
    ]},
    {"compound": "CCC(C)(C)NC(=O)c1cc(-c2ccc(C)cc2)cc(-n2nnnc2C2CC2)c1", "note": "[Example 27, 3-(5-Cyclopropyltetrazol-1-yl)-N-(2-methylbutan-2-yl)-5-(4-methylphenyl)-benzamide]", "values": [
      {"measurement": "melting point", "result": 75, "unit": "°C"},
      {"measurement": "Kb", "setting": "human EAAT3", "result": 200, "unit": "nM"}
    ]},
    {"compound": "CC1(NC(=O)c2cc(-c3ccc(F)cc3)cc(-n3nnnc3C3CC3)c2)CCS(=O)(=O)C1", "note": "(racemic) [Example 77, (RS)-3-(5-Cyclopropyltetrazol-1-yl)-5-(4-fluorophenyl)-N-(3-methyl-1,1-dioxothiolan-3-yl)-benzamide]", "values": [
      {"measurement": "melting point", "result": 120, "unit": "°C"},
      {"measurement": "Kb", "setting": "human EAAT3", "result": 250, "unit": "nM"}
    ]},
    {"compound": "CCC(C)(C)NC(=O)c1cc(-c2ccc(Cl)cc2)cc(-n2cnnn2)c1", "note": "[Example 11, 3-(4-Chlorophenyl)-N-(2-methylbutan-2-yl)-5-(tetrazol-1-yl)-benzamide]", "values": [
      {"measurement": "melting point", "result": 206, "unit": "°C"},
      {"measurement": "Kb", "setting": "human EAAT3", "result": 76, "unit": "nM"}
    ]},
    {"compound": "Cc1nnnn1-c1cc(C(=O)NC(C)(C)C)cc(-c2ccc(F)cc2)c1", "note": "[Example 80, N-tert-Butyl-3-(4-fluorophenyl)-5-(5-methyltetrazol-1-yl)-benzamide]", "values": [
      {"measurement": "melting point", "result": 80, "unit": "°C"},
      {"measurement": "Kb", "setting": "human EAAT3", "result": 180, "unit": "nM"}
    ]},
    {"compound": "CC(C)(CO)NC(=O)c1cc(-c2ccc(Cl)cc2)cc(-n2nnnc2C(C)(C)C)c1", "note": "[Example 88, 3-(5-tert-Butyltetrazol-1-yl)-5-(4-chlorophenyl)-N-(1-hydroxy-2-methylpropan-2-yl)-benzamide]", "values": [
      {"measurement": "melting point", "result": 112, "unit": "°C"},
      {"measurement": "Kb", "setting": "human EAAT3", "result": 150, "unit": "nM"}
    ]},
    {"compound": "CC(C)c1nnnn1-c1cc(C(=O)NC(C)(C)CO)cc(-c2ccc(Cl)cc2)c1", "note": "[Example 50, 3-(4-Chlorophenyl)-N-(1-hydroxy-2-methylpropan-2-yl)-5-(5-propan-2-yltetrazol-1-yl)-benzamide]", "values": [
      {"measurement": "Kb", "setting": "human EAAT3", "result": 260, "unit": "nM"}
    ]},
    {"compound": "CCC(C)(C)NC(=O)c1cc(-c2ccc(C(C)C)cc2)cc(-n2cnnn2)c1", "note": "[Example 8, N-(2-Methylbutan-2-yl)-3-(4-propan-2-ylphenyl)-5-(tetrazol-1-yl)-benzamide]", "values": [
      {"measurement": "Kb", "setting": "human EAAT3", "result": 610, "unit": "nM"}
    ]},
    {"compound": "CCC(C)(C)NC(=O)c1cc(-c2ccc(Cl)c(F)c2)cc(-n2cnnn2)c1", "note": "[Example 37, 3-(4-Chloro-3-fluorophenyl)-N-(2-methylbutan-2-yl)-5-(tetrazol-1-yl)-benzamide]", "values": [
      {"measurement": "Kb", "setting": "human EAAT3", "result": 240, "unit": "nM"}
    ]},
    {"compound": "N-(2-methylbutan-2-yl)-3-(4-methylphenyl)-5-(5-methyltetrazol-1-yl)-benzamide [Example 22]", "values": [
      {"measurement": "Kb", "setting": "human EAAT3", "result": 150, "unit": "nM"}
    ]},
    {"compound": "Cc1ccc(-c2cc(C(=O)NC(C)(C)CO)cc(-n3nnnc3C3CC3)c2)cc1", "note": "[Example 32, 3-(5-Cyclopropyltetrazol-1-yl)-N-(1-hydroxy-2-methylpropan-2-yl)-5-(4-methylphenyl)-benzamide]", "values": [
      {"measurement": "Kb", "setting": "human EAAT3", "result": 430, "unit": "nM"}
    ]},
    {"compound": "CC(C)c1nnnn1-c1cc(C(=O)NC(C)(C)CO)cc(-c2ccc(C(F)(F)F)cc2)c1", "note": "[Example 51, N-(1-Hydroxy-2-methylpropan-2-yl)-3-(5-propan-2-yltetrazol-1-yl)-5-[4-(trifluoromethyl)-phenyl]-benzamide]", "values": [
      {"measurement": "Kb", "setting": "human EAAT3", "result": 370, "unit": "nM"}
    ]},
    {"compound": "CCC(C)(C)NC(=O)c1cc(-c2ccc(C3CC3)cc2)cc(-n2cnnn2)c1", "note": "[Example 9, 3-(4-Cyclopropylphenyl)-N-(2-methylbutan-2-yl)-5-(tetrazol-1-yl)-benzamide]", "values": [
      {"measurement": "Kb", "setting": "human EAAT3", "result": 540, "unit": "nM"}
    ]}
  ]
}
